Key:
GST-JAK2(808-1132) = target: T1, GST-JAK2(808-1132) (Homo sapiens, UniProt O60674); experiment: JAK2 kinase assay (Caliper mobility shift, LabChip 3000); type: biochemical
T1 construct: GST-JAK2(808-1132); purchased Invitrogen (Carlsbad, USA) #4288
Method in brief: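 Eight-point compound series (final 10–0.003 μM) tested on purchased GST-JAK2 kinase domain (808-1132). Peptide FITC-JAK3tide plus ATP reacted 60 min, 30 °C, then quenched with EDTA; turnover from charge-based separation of substrate and product.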

[1] = system: JAK1/JAK2-dependent nuclear translocation of STAT1-GFP in HT1080 fibrosarcoma cells; experiment: STAT1 nuclear translocation assay (Cellomics), IFN-γ stimulated HT1080 STAT1-GFP cells; type: cell-based; conditions: Homo sapiens, HT-1080, STAT1 translocation pathway
Description: The medium-throughput (96-well format) cellular automated fluorescence microscopy Cellomics assay can be routinely used to assess the functional activation of Janus Kinases (JAKs), based on the nuclear translocation of their substrate, Signal Transducer and Activator of Transcription (STAT). Nuclear translocation can be monitored either in HT1080 fibrosarcoma cells stably transfected with STAT1 fused to Green Fluorescence Protein (GFP) or in U-2 OS osteosarcoma cells stably transfected with STAT5 fused to Green Fluorescence Protein (GFP). Stimulation of HT1080 cells with interferon-γ (IFN-γ) results in JAK1/JAK2-dependent nuclear translocation of STAT1-GFP, whereas stimulation of U-2 OS cells with recombinant human erythropoietin (rhEpo) results in JAK2-dependent nuclear translocation of STAT5-GFP, both of which can be quantified using the Cellomics Cyto/NucTrans software package. This assay may be used to provide an assessment of the nuclear-cytoplasmic differential (NCD) of STAT-GFP using Hoechst dye to define the boundaries of the nucleus.
HT1080 fibrosarcoma cells may be obtained from ATCC and can be cultured in alpha Modified Eagle Medium with 10% FCS. Cells can be transfected with pEGFP-N2 STAT1 using Fugene 6 Transfection Reagent following the manufacturers' protocol. 24 hours after transfection the medium can be replaced and selected in 1 mg/ml Geneticin.
Compounds can be dissolved in DMSO to a final stock concentration of 10 mM and stored as aliquots at 4° C. Compounds may be pre-diluted in 100% DMSO at 10 mM, 3 mM 1 mM, 0.3 mM, 0.1 mM, 0.03 mM, 0.01 mM and 0.003 mM. Subsequently, compounds may be diluted in medium and added in 50 μl to the cells. The final compound concentrations tested may be 10 μM, 3 μM 1 μM, 0.3 μM, 0.1 μM, 0.03 μM, 0.01 μM and 0.003 μM and the final DMSO concentration can be 0.1%.
HT1080 STAT1-GFP cells may be seeded at a density of 10,000 cells per well in clear-bottom black 96-well Packard View-Plates™. 16-24 hours later, the cells can be treated for 2 hours with 100 ng/ml IFN-γ, washed twice in pre-warmed PBS and fixed in 200 μl of pre-warmed fixation solution (PBS, 3.7% Formaldehyde) for 10 minutes. The plates may be washed twice in 200 μl PBS and incubated, protected from light, in 100 μl of DNA-staining solution (PBS, 0.5 μg/ml Hoechst-33342) for 1 minute. The plates may then be washed once in PBS, and 200 μl PBS finally added per well. The plates, being finally covered with a black adhesive, may be either read directly or stored at 4° C. for later imaging. Where appropriate, the compounds may be added 30 min before stimulation with IFN-γ.
The plates can be read on a Cellomics® ArrayscanII automated fluorescence microscope plate reader equipped with a Mercury-Xenon white light illumination source and a Zeiss Axiovert inverted microscope, using the XF100 dichroic/emission filter cube and matching excitation filters, 10× magnification, and a 0.3 numerical aperture objective. Image acquisition and analysis can be performed using a customized protocol based on the ‘NuclearTranslocation’ Bioapplication. For each well, multiple images (fields) can be acquired until a minimum of 1000 cells are counted using two 2 channels: Channel 1 (Hoechst)=focus+nuclear mask, Channel 2 (GFP)=signal quantification in mask areas as outlined below. Nuclei may be first identified based on the Hoechst staining and a mask generated for each nucleus that then serves as a template to generate a circle (eroded inwards by 1 pixel) and a 3 pixel-wide collar-like ring (off-set outwards by 1 pixel), in which the nuclear and cytoplasmic intensity of GFP, respectively, are quantified in the corresponding channel. High content analysis yields numerous measurements per cell and the GFP intensity differential between the nuclear and the cytoplasmic masks may be chosen as a measure of sub-cellular STAT-GFP relocation. The resulting values may be averaged for all cells in the well to return a single measurement plus standard deviation. […]

T1 sequence (O60674 808-1132): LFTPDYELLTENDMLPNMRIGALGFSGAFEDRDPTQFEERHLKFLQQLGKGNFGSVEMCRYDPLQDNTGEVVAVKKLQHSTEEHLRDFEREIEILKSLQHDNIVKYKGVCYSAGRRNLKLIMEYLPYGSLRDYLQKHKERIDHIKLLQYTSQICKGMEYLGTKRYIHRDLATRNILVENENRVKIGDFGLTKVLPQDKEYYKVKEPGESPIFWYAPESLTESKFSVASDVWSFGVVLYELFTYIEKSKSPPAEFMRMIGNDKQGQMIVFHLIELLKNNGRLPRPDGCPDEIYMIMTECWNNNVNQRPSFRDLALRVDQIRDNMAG

SMILES | IC50 (GST-JAK2(808-1132)) [µM] | IC50 [1] [µM]
Cc1ccc(Nc2ncc3ccn(-c4ccc(CC(=O)N5CCS(=O)(=O)CC5)c(F)c4)c3n2)cc1C [Example 156, 2-{4-[2-(3,4-Dimethyl-phenylamino)-pyrrolo[2,3-d]pyrimidin-7-yl]-2-fluoro-phenyl}-1-(1,1-dioxido-1-thiomorpholin-4-yl)-ethanone] | 0.013 | 0.06
CN(C)CCN(C(=O)c1cccc(Nc2ncc3ccn(-c4ccc(S(C)(=O)=O)cc4)c3n2)c1)c1ccccc1 [Example 48, N-(2-Dimethylamino-ethyl)-3-[7-(4-methanesulfonyl-phenyl)-7H-pyrrolo[2,3-d]pyrimidin-2-ylamino]-N-phenyl-benzamide] | 0.027 | 4.21
CN1CCN(C(=O)c2ccc(-n3ccc4cnc(Nc5ccc(F)cc5)nc43)cc2F)CC1 [Example 58, {2-Fluoro-4-[2-(4-fluoro-phenylamino)-pyrrolo[2,3-d]pyrimidin-7-yl]-phenyl}-(4-methyl-piperazin-1-yl)-methanone] | 0.012 | 5.29
CC(=O)c1ccc(-n2ccc3cnc(Nc4ccc(F)cc4)nc32)cc1 [Example 60, 1-{4-[2-(4-Fluoro-phenylamino)-pyrrolo[2,3-d]pyrimidin-7-yl]-phenyl}-ethanone] | 0.0081 | 4.08
CC(C)Oc1ccc(Nc2ncc3ccn(-c4ccc(C(=O)N5CCOCC5)cc4F)c3n2)cc1 [Example 522, {3-Fluoro-4-[2-(4-isopropoxy-phenylamino)-pyrrolo[2,3-d]pyrimidin-7-yl]-phenyl}-morpholin-4-yl-methanone] | 0.008 | 2.89
CCN1CCN(Cc2c(F)cc(-n3ccc4cnc(Nc5ccc(F)c(C)c5)nc43)cc2F)CC1 [Example 132, {7-[4-(4-Ethyl-piperazin-1-ylmethyl)-3,5-difluoro-phenyl]-7H-pyrrolo[2,3-d]pyrimidin-2-yl}-(4-fluoro-3-methyl-phenyl)-amine] | 0.0405 | 6.28
Cc1cc(Nc2ncc3ccn(-c4cc(F)c(CN5CCOCC5)c(F)c4)c3n2)ccc1F [Example 131, [7-(3,5-Difluoro-4-morpholin-4-ylmethyl-phenyl)-7H-pyrrolo[2,3-d]pyrimidin-2-yl]-(4-fluoro-3-methyl-phenyl)-amine] | 0.016 | 1.5
Cc1ccc(Nc2ncc3ccn(-c4cc(F)c(CN5CCN(C)CC5)c(F)c4)c3n2)cc1C [Example 304, {7-[3,5-Difluoro-4-(4-methyl-piperazin-1-ylmethyl)-phenyl]-7H-pyrrolo[2,3-d]pyrimidin-2-yl}-(3,4-dimethyl-phenyl)-amine] | 0.0135 | 1.49
CN1CCN(Cc2ccc(Nc3ncc4ccn(-c5ccc(S(C)(=O)=O)cc5)c4n3)cc2)CC1=O [Example 335, 4-{4-[7-(4-Methanesulfonyl-phenyl)-7H-pyrrolo[2,3-d]pyrimidin-2-ylamino]-benzyl}-1-methyl-piperazin-2-one] | 0.0093 | 0.36
CCN1CCN(Cc2ccc(-n3ccc4cnc(Nc5ccc(OC(C)C)cc5)nc43)cc2F)CC1 [Example 106, {7-[4-(4-Ethyl-piperazin-1-ylmethyl)-3-fluoro-phenyl]-7H-pyrrolo[2,3-d]pyrimidin-2-yl}-(4-isopropoxy-phenyl)-amine] | 0.033 | 8.38
CCN1CCN(Cc2c(F)cc(-n3ccc4cnc(Nc5ccc(C)c(Cl)c5)nc43)cc2F)CC1 [Example 130, (3-Chloro-4-methyl-phenyl)-{7-[4-(4-ethyl-piperazin-1-ylmethyl)-3,5-difluoro-phenyl]-7H-pyrrolo[2,3-d]pyrimidin-2-yl}-amine] | 0.115 | 8.41
CS(=O)(=O)c1ccc(-n2ccc3cnc(Nc4ccc(N5CCNC6(CC6)C5)nc4)nc32)cc1 [Example 272, [6-(4,7-Diaza-spiro[2.5]oct-7-yl)-pyridin-3-yl]-[7-(4-methanesulfonyl-phenyl)-7H-pyrrolo[2,3-d]pyrimidin-2-yl]-amine] | 0.011 | 0.175
O=C(c1ccc(-n2ccc3cnc(Nc4ccc(F)cc4)nc32)cc1)N1CCOCC1 [Example 61, {4-[2-(4-Fluoro-phenylamino)-pyrrolo[2,3-d]pyrimidin-7-yl]-phenyl}-morpholin-4-yl-methanone] | 0.0071 | 0.835
Cc1cc(Nc2ncc3ccn(-c4ccc(S(C)(=O)=O)cc4)c3n2)ccc1F [Example 81, (4-Fluoro-3-methyl-phenyl)-[7-(4-methanesulfonyl-phenyl)-7H-pyrrolo[2,3-d]pyrimidin-2-yl]-amine] | 0.018 | 2.7

The next molecules have a lower IC50 (GST-JAK2(808-1132)) than those just listed; values first:

IC50 (GST-JAK2(808-1132)) [µM] | IC50 [1] [µM] | SMILES
< 0.003 | 0.275 | CC(C)Oc1ccc(Nc2ncc3ccn(-c4ccc(C5(C(=O)N6CCOCC6)CC5)cc4)c3n2)cc1 [Example 84, (1-{4-[2-(4-Isopropoxy-phenylamino)-pyrrolo[2,3-d]pyrimidin-7-yl]-phenyl}-cyclopropyl)-morpholin-4-yl-methanone]
0.0064 | 0.57 | Cc1ccc(Nc2ncc3ccn(-c4cc(F)c(CN5CCN(C)C(=O)C5)c(F)c4)c3n2)cc1C [Example 310, 4-{4-[2-(3,4-Dimethyl-phenylamino)-pyrrolo[2,3-d]pyrimidin-7-yl]-2,6-difluoro-benzyl}-1-methyl-piperazin-2-one]
0.0031 | 0.17 | CS(=O)(=O)c1ccc(-n2ccc3cnc(Nc4ccc(CN5CCCCC5)cc4)nc32)cc1 [Example 42, [7-(4-Methanesulfonyl-phenyl)-7H-pyrrolo[2,3-d]pyrimidin-2-yl]-(4-piperidin-1-ylmethyl-phenyl)-amine]
< 0.003 | 0.08 | O=C1CN(Cc2ccc(Nc3ncc4ccn(-c5cc(F)c(CN6CCOCC6)c(F)c5)c4n3)cc2)CCN1 [Example 258, 4-{4-[7-(3,5-Difluoro-4-morpholin-4-ylmethyl-phenyl)-7H-pyrrolo[2,3-d]pyrimidin-2-ylamino]-benzyl}-piperazin-2-one]
0.0037 | 0.285 | CC(=O)N1CCN(Cc2ccc(Nc3ncc4ccn(-c5cc(F)c(CN6CCNC(=O)C6)c(F)c5)c4n3)cc2)CC1 [Example 339, 4-(4-{2-[4-(4-Acetyl-piperazin-1-ylmethyl)-phenylamino]-pyrrolo[2 3-d]pyrimidin-7-yl}-2,6-difluoro-benzyl)-piperazin-2-one]
0.0055 | 0.235 | CN1CCN(Cc2ccc(Nc3ncc4ccn(-c5cc(F)c(CN6CCOCC6)c(F)c5)c4n3)cc2)CC1 [Example 173, [7-(3,5-Difluoro-4-morpholin-4-ylmethyl-phenyl)-7H-pyrrolo[2,3-d]pyrimidin-2-yl]-[4-(4-methyl-piperazin-1-ylmethyl)-phenyl]-amine]
0.0062 | 0.255 | COc1ccc(Nc2ncc3ccn(-c4ccc(C(=O)NC(C)(C)C)cc4)c3n2)cc1OC [Example 7, N-tert-Butyl-4-[2-(3,4-dimethoxy-phenylamino)-pyrrolo[2,3-d]pyrimidin-7-yl]-benzamide]
< 0.003 | 0.13 | Cc1ccc(Nc2ncc3ccn(-c4ccc(CC(=O)N5CCOCC5)cc4)c3n2)cc1 [Example 141, 1-Morpholin-4-yl-2-[4-(2-p-tolylamino-pyrrolo[2,3-d]pyrimidin-7-yl)-phenyl]-ethanone]

— US8420657B2 (Novartis AG, priority 2008, dated 2013)
